Source: patent US10004754B2, “ANP fragment adjuvant therapy to standard of care (SOC) diuretic treatment” (MADELEINE PHARMACEUTICALS PTY LTD, priority 2014, dated 2018)
Where no end group is shown, it is not given here.

Tests used:
clinical = assay: clinical; design: species or system human; details: in vivo
[1] = tested on: patients showing either acute exacerbations of chronic CHF or ADCHF; details: cited from earlier work
stable CHF patients [2] = assay: Renal function (eGFR, plasma creatinine, MAG3 clearance) with sc VSDL infusion, Example 2; format: in vivo, human; details: for Plasma Creatinine % Change: given without sign, a decrease; for Plasma Creatinine: baseline 161.7 ± 58; for MAG3 Clearance % change: Post-Treatment vs Pre-Treatment
Description: (§1) A second study was conducted with a population of eighteen (18) test adult CHF patients, both male and female, in order to further evaluate the improvement in renal and cardiac function in stable CHF patients given VSDL (by sc administration) in addition to standard of care (SOC) treatment.
(§2) Participants were selected on the basis of the Inclusion and Exclusion criteria given in Example 1. […] In addition, selected patients were required to have a plasma brain natriuretic peptide (BNP) concentration of ≥100 pg/mL and a GFR ≥25 mL/min and <70 mL/min as calculated by the Cockroft Gault calculation (ie moderate renal impairment). On the other hand, the presence of acute MI (ie as indicated by ST elevation and/or elevation of Troponin-T) or evidence of MI or other high risk acute coronary syndrome within the past 6 weeks, hypotension (ie systolic blood pressure (SBP) <90 mmHg), persistent and/or uncontrolled hypertension (SBP>180 mmHg), cardiogenic shock or any other clinical condition that would contraindicate administration of an agent with potent vasodilatory effects, excluded patients from participating in the study. Participants in this study also had standard exclusion criteria that accompany pulmonary artery (SG) catheterisation.
(§3) The study was an open-label, sequential group, continuous sc infusion study conducted at a single centre. Two steady-state concentration levels (Css) of VSDL were targeted, approximately 10 ng/mL (n=2 lead-in, and n=10, cohort 1) and 20 ng/mL (n=6, cohort 2). The two lead-in patients were treated with similar dose regimens to confirm that the measured plasma concentrations were in agreement with the targeted Css. Two patients from cohort 1 and all 6 patients from cohort 2 underwent pulmonary artery Swan-Ganz (SG) catheterisation to enable haemodynamic monitoring.
(§4) VSDL prepared as described in Example 1, was administered via sc 6 or 12 hour infusion into the lower abdomen at a maximum volume rate of 350 μL/hr (ie approximately 6 μL/min). The rate of infusion of VSDL for the targeted Css level of 10 ng/mL was either 900 μg/hr (0.3 mL/hr) for 12 hrs or a bimodal infusion of 900 μg/hr for 5 hrs followed by 550 μg/hr (0.18 mL/hr) for 7 hrs. The rate of infusion of VSDL for the targeted Css level of 20 ng/mL was bimodal; 1800 μg/hr (0.20 mL/hr) for 5 hrs followed by 1100 μg/hr (0.12 mL/hr) for 7 hrs (see WO 2014/138796). For the lead-in patients, the infusions were performed at 900 μg/hr for 6 hrs.
(§5) R Studio (version 4) and GraphPad Prism (GraphPad Software, version 6) were used for all statistical analyses. Statistically significant changes from base line for all parameters were tested using with linear mixed effects model or one-way repeated measures ANOVA with Bonferroni correction. A p value of 0.05 was set for statistically significant differences. All data are reported as mean±s.d or mean (95% CI).
This change was also accompanied by a 10% decrease in plasma creatinine from 162±58 μmol/L at baseline to […] (p≤0.05) during infusion (Table 6).

stable CHF patients [3] = assay: Blood pressure during and after continuous sc VSDL infusion, Example 2; format: in vivo, human; details: for average drop in blood pressure, diastolic / average drop in blood pressure, systolic: during the 24 hour time period; for mean drop in blood pressure, diastolic / mean drop in blood pressure, systolic: throughout the 12 hour infusion period
Description: as §1, §2, §3, §4, §5

[4] = lead-in patients, 900 μg/hr sc for 6 hours
[5] = lead-in patients, 900 μg/hr sc for 6 hours, up to 24 hours post infusion
[6] = patients with baseline blood pressures ≤105/60 mmHg, during the infusion

## EVVPPQVLSEPNEEAGAALSPLPEVPPWTGEVSPAQR [VSDL]
clinical; both sexes, human, sc
  bioavailability: 19.2%
clinical; human, sc
  CL Maximum Elimination rate, Pop value: 26.8 L/h
  F Bioavailability, Pop value: 26.894%
clinical
  ETASHARE Random effect scalinmg factor, Pop value: 1.000 ratio
clinical; iv
  RUVADDIV Residual Error (Additive, I.V.), Pop value: 0.248 ng/mL
  RUVCVIV Residual Error (Proportional, I.V.), Pop value: 0.336 ratio
clinical; sc
  FVOL Infused volume on F, Pop value: 1.590 ratio
  KA Absorption rate constant, Pop value: 0.625 h⁻¹
  LGT Logit F value, Pop value: −1.00
  RUVADDSC Residual Error (Additive, S.C.), Pop value: 0.070 ng/mL
  RUVCVSC Residual Error (Proportional, S.C.), Pop value: 0.259 Ratio
  V2 S.C. bolus V scaling factor, Pop value: 1.62 ratio
  V3 S.C. infusion V scaling factor, Pop value: 3.65 ratio
  V Central volume, Pop value: 13.20 L
[1]; in vivo, iv
  side-effects: without side-effects
[1]; iv infusion, even with very low doses, WO 2012/019237
  outcomes (eg increased cardiac index, drops in pulmonary capillary wedge pressure and blood pressure): improved outcomes
Stable CHF patients [2]; >0.5-6 hs vs baseline
  Plasma Creatinine % Change: (8) %
Stable CHF patients [2]; >0.5-6 hs
  Plasma Creatinine: 148.5 ± 60 µmol/L
Stable CHF patients [2]; >6-12 hs vs baseline
  Plasma Creatinine % Change: (10) %
Stable CHF patients [2]; >6-12 hs
  Plasma Creatinine: 146 ± 60 µmol/L
Stable CHF patients [2]; FIGS. 6A and B
  eGFR and plasma creatinine in relation to plasma concentration of VSDL: improved with rising circulating levels of VSDL
Stable CHF patients [2]; Stage 3A CKD
  MAG3 Clearance, Post (Pre-Treatment): 14 ± 7 ml/min/1.73 m^2
  MAG3 Clearance % change: (9) %
Stable CHF patients [2]; Stage 3A CKD, Post-Treatment, Pre-Treatment 148.5 ± 26
  MAG3 Clearance: 162.5 ± 24 ml/min/1.73 m^2
Stable CHF patients [2]; Stage 3B CKD
  MAG3 Clearance, Post (Pre-Treatment): .3 ± 9 ml/min/1.73 m^2
  MAG3 Clearance % change: (0) %
Stable CHF patients [2]; Stage 3B CKD, Post-Treatment, Pre-Treatment 164.5 ± 32
  MAG3 Clearance: 164.8 ± 33 ml/min/1.73 m^2
Stable CHF patients [2]; Stage 4 CKD
  MAG3 Clearance, Post (Pre-Treatment): 17 ± 16 ml/min/1.73 m^2
  MAG3 Clearance % change: (16) %
Stable CHF patients [2]; Stage 4 CKD, Post-Treatment, Pre-Treatment 106.0 ± 58
  MAG3 Clearance: 123.3 ± 56 ml/min/1.73 m^2
Stable CHF patients [2]; adjuvant treatment with VSDL
  eGFR and MAG3 clearance across all classes of CKD: numerical increases
Stable CHF patients [2]; all patients
  MAG3 Clearance, Post (Pre-Treatment): 9 ± 12 ml/min/1.73 m^2
  MAG3 Clearance % change: (6) %
Stable CHF patients [2]; all patients, Post-Treatment, Pre-Treatment 140.3 ± 44
  MAG3 Clearance: 148.9 ± 41 ml/min/1.73 m^2
Stable CHF patients [2]; during infusion vs baseline
  decrease in plasma creatinine: 10%
Stable CHF patients [2]; during the 12 hour infusion vs baseline
  improvement in eGFR: 16%
Stable CHF patients [2]; during the 12 hour infusion, baseline 38±11, p≤0.05
  estimated glomerular filtration rate (eGFR): 44±14 ml/min/1.73 m^2
Stable CHF patients [2]; eGFR 15-29 (Stage 4 CKD), >0.5-6 hs vs baseline
  eGFR % Change: (23) %
Stable CHF patients [2]; eGFR 15-29 (Stage 4 CKD), >0.5-6 hs, baseline 23.5 ± 5
  eGFR: 28.8 ± 10 ml/min/1.73 m^2
Stable CHF patients [2]; eGFR 15-29 (Stage 4 CKD), >6-12 hs, baseline 23.5 ± 5
  eGFR: 30 ± 12 ml/min/1.73 m^2
Stable CHF patients [2]; eGFR 30 to 44 (Stage 3B CKD), >0.5-6 hs vs baseline
  eGFR % Change: (12) %
Stable CHF patients [2]; eGFR 30 to 44 (Stage 3B CKD), >0.5-6 hs, baseline 37.7 ± 4
  eGFR: 42.3 ± 10 ml/min/1.73 m^2
Stable CHF patients [2]; eGFR 30 to 44 (Stage 3B CKD), >6-12 hs vs baseline
  eGFR % Change: (12) %
Stable CHF patients [2]; eGFR 30 to 44 (Stage 3B CKD), >6-12 hs, baseline 37.7 ± 4
  eGFR: 42.3 ± 10 ml/min/1.73 m^2
Stable CHF patients [2]; eGFR 45-59 (Stage 3A CKD), >0.5-6 hs vs baseline
  eGFR % Change: (8) %
Stable CHF patients [2]; eGFR 45-59 (Stage 3A CKD), >0.5-6 hs, baseline 49.8 ± 3
  eGFR: 54.0 ± 4 ml/min/1.73 m^2
Stable CHF patients [2]; eGFR 45-59 (Stage 3A CKD), >6-12 hs vs baseline
  eGFR % Change: (14) %
Stable CHF patients [2]; eGFR 45-59 (Stage 3A CKD), >6-12 hs, baseline 49.8 ± 3
  eGFR: 56.6 ± 4 ml/min/1.73 m^2
Stable CHF patients [2]; [4]
  renal function (eGFR, MAG3 clearance, plasma creatinine), trend: improved renal function
Stable CHF patients [2]; patients with eGFR 15-60, >0.5-6 hs vs baseline
  eGFR % Change: (12) %
Stable CHF patients [2]; patients with eGFR 15-60, >0.5-6 hs, baseline 37.9 ± 11
  eGFR: 42.6 ± 13 ml/min/1.73 m^2
Stable CHF patients [2]; patients with eGFR 15-60, >6-12 hs vs baseline
  eGFR % Change: (16) %
Stable CHF patients [2]; patients with eGFR 15-60, >6-12 hs, baseline 37.9 ± 11
  eGFR: 43.8 ± 14 ml/min/1.73 m^2
Stable CHF patients [2]; post-treatment, pre-treatment 140±44, p≤0.05
  MAG3 Clearance: 149±41 ml/min/1.73 m^2
Stable CHF patients [3]; 10 ng/ml cohort, 0.5-6 hs, baseline 61 ± 8
  Diastolic Blood Pressure: 64 ± 8 mmHg
Stable CHF patients [3]; 10 ng/ml cohort, 0.5-6 hs, baseline 116 ± 10
  Systolic Blood Pressure: 121 ± 11 mmHg
Stable CHF patients [3]; 10 ng/ml cohort, >6-12 hs, baseline 61 ± 8
  Diastolic Blood Pressure: 65 ± 7 mmHg
Stable CHF patients [3]; 10 ng/ml cohort, >6-12 hs, baseline 116 ± 10
  Systolic Blood Pressure: 125 ± 10 mmHg
Stable CHF patients [3]; 10 ng/ml cohort, >12-24 hs, baseline 61 ± 8
  Diastolic Blood Pressure: 62 ± 7 mmHg
Stable CHF patients [3]; 10 ng/ml cohort, >12-24 hs, baseline 116 ± 10
  Systolic Blood Pressure: 118 ± 10 mmHg
Stable CHF patients [3]; 10 ng/ml cohort
  average drop in blood pressure, diastolic: −5 mmHg
  average drop in blood pressure, systolic: −8 mmHg
  mean drop in blood pressure, diastolic: −6 mmHg
  mean drop in blood pressure, systolic: −8 mmHg
Stable CHF patients [3]; 20 ng/ml cohort, 0.5-6 hs, baseline 71 ± 12
  Diastolic Blood Pressure: 66 ± 6 mmHg
Stable CHF patients [3]; 20 ng/ml cohort, 0.5-6 hs, baseline 124 ± 21
  Systolic Blood Pressure: 116 ± 17 mmHg
Stable CHF patients [3]; 20 ng/ml cohort, >6-12 hs, baseline 71 ± 12
  Diastolic Blood Pressure: 67 ± 6 mmHg
Stable CHF patients [3]; 20 ng/ml cohort, >6-12 hs, baseline 124 ± 21
  Systolic Blood Pressure: 118 ± 20 mmHg
Stable CHF patients [3]; 20 ng/ml cohort, >12-24 hs, baseline 71 ± 12
  Diastolic Blood Pressure: 64 ± 6 mmHg
Stable CHF patients [3]; 20 ng/ml cohort, >12-24 hs, baseline 124 ± 21
  Systolic Blood Pressure: 116 ± 21 mmHg
Stable CHF patients [3]; 20 ng/ml cohort
  average drop in blood pressure, diastolic: −8 mmHg
  average drop in blood pressure, systolic: −13 mmHg
  mean drop in blood pressure, diastolic: −7 mmHg
  mean drop in blood pressure, systolic: −14 mmHg
Stable CHF patients [3]; all VSDL-treated patients, p=0.4
  drops in mean blood pressures from baseline, based on post infusion time: no significant drops
Stable CHF patients [3]; at higher VSDL concentrations, p=0.005, FIGS. 5A and B
  systolic and diastolic blood pressures, regression on concentration of VSDL: significant decrease
Stable CHF patients [3]; [4]
  change in blood pressure: no significant change
Stable CHF patients [3]; [5]
  mean diastolic blood pressure: 66±3 mmHg
  mean systolic blood pressure: 114±6 mmHg
Stable CHF patients [3]; patients with BP ≤ 105 mmHg, 0.5-6 hs, baseline 57 ± 6
  Diastolic Blood Pressure: 61 ± 7 mmHg
Stable CHF patients [3]; patients with BP ≤ 105 mmHg, 0.5-6 hs, baseline 97 ± 8
  Systolic Blood Pressure: 106 ± 17 mmHg
Stable CHF patients [3]; patients with BP ≤ 105 mmHg, >6-12 hs, baseline 57 ± 6
  Diastolic Blood Pressure: 64 ± 8 mmHg
Stable CHF patients [3]; patients with BP ≤ 105 mmHg, >6-12 hs, baseline 97 ± 8
  Systolic Blood Pressure: 113 ± 25 mmHg
Stable CHF patients [3]; patients with BP ≤ 105 mmHg, >12-24 hs, baseline 57 ± 6
  Diastolic Blood Pressure: 62 ± 6 mmHg
Stable CHF patients [3]; patients with BP ≤ 105 mmHg, >12-24 hs, baseline 97 ± 8
  Systolic Blood Pressure: 109 ± 20 mmHg
Stable CHF patients [3]; patients with baseline blood pressures ≤105/60 mmHg
  drop in blood pressures: no significant drop
Stable CHF patients [3]; [6]
  average blood pressure drop, diastolic: −3 mmHg
  average blood pressure drop, systolic: −4 mmHg
